Measurements: ChEMBL document CHEMBL1201862, “PubChem BioAssay data set” (2004)
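Compound exposure: 48 hours, 5 concentrations, 96-well plates. GI50 = concentration required for 50% inhibition of growth.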 Active and inactive are the calls of the source. Cut-off read from the data, not from the text of the source: active = GI50 up to about 1.1 µM and inactive = higher.

Experiments:
Assay in all cases: NCI-60 cell line screen, 48 h
DLD-1 = test system: DLD-1
DMS-114 = test system: DMS-114
DMS-273 = test system: DMS-273
HOP-18 = test system: HOP-18
KM-20L2 = test system: KM-20L2
LXFL 529 = test system: LXFL 529
RXF 631 = test system: RXF 631
SNB-78 = test system: SNB-78
XF498 = test system: XF498

Measured: GI50

Nc1ccccc1C(=O)CCC1C(=O)NC(=S)NC1=O
inactive: DLD-1 > 100 µM | DMS-114 > 100 µM | DMS-273 > 100 µM | HOP-18 > 100 µM | KM-20L2 > 100 µM | LXFL 529 > 100 µM | RXF 631 > 100 µM

O=C(c1ccc(Cl)cc1)N(C(=S)N1CCN(c2ccccc2)CC1)c1ccccc1
inactive: DLD-1 > 100 µM | DMS-273 > 100 µM | HOP-18 > 100 µM | KM-20L2 > 100 µM | LXFL 529 > 100 µM | SNB-78 > 100 µM

O=C(CC(=O)C(=O)CC(=O)OCc1ccccc1)OCc1ccccc1
inactive: DLD-1 60.8 µM | DMS-114 > 100 µM | KM-20L2 > 100 µM | LXFL 529 > 100 µM

O=C(CC(=O)N1N=C(N2c3ccccc3Sc3ccccc32)CC1c1ccccc1)Nc1ccc(Cl)cc1 (stereo not drawn)
inactive: DLD-1 > 100 µM | DMS-114 > 100 µM | DMS-273 > 100 µM | HOP-18 > 100 µM | KM-20L2 > 100 µM | LXFL 529 > 100 µM | SNB-78 > 100 µM | XF498 > 100 µM

COc1ccc2c3c(c(C(=O)O)oc13)CCC2
inactive: DLD-1 > 100 µM | DMS-114 > 100 µM | DMS-273 > 100 µM | LXFL 529 > 100 µM | SNB-78 > 100 µM | XF498 > 100 µM

CCCS(=O)(=O)/C(=C(\c1ccc(Br)cc1)S(=O)(=O)CCC)c1ccc(Br)cc1
inactive: DLD-1 > 10 µM | DMS-273 > 10 µM | HOP-18 > 10 µM | KM-20L2 > 10 µM | LXFL 529 > 10 µM | SNB-78 > 10 µM | XF498 > 10 µM

O=C(O)c1oc2ccc([N+](=O)[O-])c3c2c1CCC3
inactive: DLD-1 > 100 µM | DMS-114 > 100 µM | DMS-273 > 100 µM | HOP-18 > 100 µM | KM-20L2 > 100 µM | LXFL 529 > 100 µM | SNB-78 > 100 µM | XF498 24.4 µM

COC(=O)C1(C(C)C)CCc2c(OC)ccc(OC)c2C1=O (stereo not drawn)
inactive: DLD-1 > 100 µM | DMS-114 > 100 µM | HOP-18 > 100 µM | KM-20L2 > 100 µM | LXFL 529 > 100 µM | SNB-78 > 100 µM | XF498 > 100 µM

NCCNCCNCc1c2ccccc2c(CNCCNCCN)c2ccccc12
inactive: DLD-1 > 100 µM | DMS-114 46.9 µM | HOP-18 49.8 µM | KM-20L2 41.4 µM | LXFL 529 57.8 µM | SNB-78 98.6 µM | XF498 72.9 µM

CSC1(C)CC2C(CC1N1CCCCC1)C2(C)C (stereo not drawn)
inactive: DLD-1 > 100 µM | DMS-273 > 100 µM | HOP-18 > 100 µM | LXFL 529 > 100 µM | SNB-78 > 100 µM | XF498 > 100 µM

CSc1ccc2c(cc1=O)C(NC(=O)c1cc(O)c(OC(=O)O)c(O)c1)CCc1cc(O)c(O)c(O)c1-2 (stereo not drawn)
inactive: DLD-1 18.5 µM | DMS-114 15.2 µM | DMS-273 17 µM | HOP-18 > 89.9 µM | KM-20L2 24.9 µM | LXFL 529 16.5 µM | SNB-78 33.3 µM
